Legend:
Test in all cases: Drug sensitivity of clinical isolated strain
[1] = tested on: KP-1: Klebsiella pneumonia subsp. pneumonia 13#; type: cell-based; settings: KP-1 (Table 3)
[2] = tested on: KP-2: K. pneumonia subsp. pneumonia 0322#; type: cell-based, Klebsiella pneumonia
[3] = tested on: AB-1: Acinetobacter baumannii H#; type: cell-based
AB-2: A. baumannii 0361# = type: cell-based, Acinetobacter baumannii; settings: AB-2 (Table 3)
[4] = tested on: PA-1: Pseudomonas aeruginose 1298#; type: cell-based, Pseudomonas aeruginosa
[5] = tested on: PA-2: P. aeruginose 0009#; type: cell-based, Pseudomonas aeruginosa; settings: PA-2 (Table 3)
[6] = tested on: ECO-1: Escherichia coli 1139#; type: cell-based
ECO-2: E. coli 2219# = type: cell-based, Escherichia coli; settings: ECO-2 (Table 3)
ECO-3: E. coli ZY-1 = type: cell-based, Escherichia coli
[7] = tested on: ECL-1: Enterobacter cloacae 0431#; type: cell-based; settings: ECL-1 (Table 3)
ECL-2: E. cloacae 2301# = type: cell-based, Enterobacter cloacae
Note: key: R: resistant; S: sensitive.

| Molecule | Drug sensitivity [1] | Drug sensitivity ([2]; KP-2 (Table 3)) | Drug sensitivity ([2]; KP-2 (table of Example 3)) | Drug sensitivity ([3]; AB-1 (Table 3)) | Drug sensitivity ([3]; AB-1 (table of Example 3)) | Drug sensitivity (AB-2: A. baumannii 0361#) | Drug sensitivity ([4]; PA-1 (Table 3)) | Drug sensitivity ([4]; PA-1 (table of Example 3)) | Drug sensitivity [5] | Drug sensitivity ([6]; ECO-1 (Table 3)) | Drug sensitivity ([6]; ECO-1 (table of Example 3)) | Drug sensitivity (ECO-2: E. coli 2219#) | Drug sensitivity (ECO-3: E. coli ZY-1; E. coli ZY-1 (Table 7)) | Drug sensitivity (ECO-3: E. coli ZY-1; ECO-3 (Table 3)) | Drug sensitivity [7] | Drug sensitivity (ECL-2: E. cloacae 2301#; ECL-2 (Table 3)) | Drug sensitivity (ECL-2: E. cloacae 2301#; ECL-2 (table of Example 3)) |
| --- | --- | --- | --- | --- | --- | --- | --- | --- | --- | --- | --- | --- | --- | --- | --- | --- | --- |
| Cc1nnc(SCC2=C(C(=O)O)N3C(=O)[C@@H](NC(=O)Cn4cnnn4)[C@H]3SC2)s1 [Cefazolin] | R | R | R | R | R | R | R | R | R | R | R | R | S | S |  |  |  |
| C[C@H]1[C@H](NC(=O)/C(=N\OC(C)(C)C(=O)O)c2csc(N)n2)C(=O)N1S(=O)(=O)O [Aztreonam] |  |  |  | R | R | R | R | R | R | R | R | R | S | S | R | R | R |
| Nc1ccc(S(N)(=O)=O)cc1 [Sulfanilamide] |  |  |  |  |  | S | R | R | R | R | R | R | R | R | R | R | R |
| C[C@@H](O)[C@H]1C(=O)N2C(C(=O)O)=C(S[C@@H]3CN[C@H](C(=O)N(C)C)C3)[C@H](C)[C@H]12 [Meropenem] | R | S | S | R | R | R | R | R | R/S | S | S | S | S | S | S | R | R |
| CO/N=C(\C(=O)N[C@@H]1C(=O)N2C(C(=O)[O-])=C(C[N+]3(C)CCCC3)CS[C@H]12)c1csc(N)n1 [Cefepime] | R | R | R | R | R | R | R | R | R | R | R | R | S | S | R | R | R |
| NCC[C@H](O)C(=O)N[C@@H]1C[C@H](N)[C@@H](O[C@H]2O[C@H](CN)[C@@H](O)[C@H](O)[C@H]2O)[C@H](O)[C@H]1O[C@H]1O[C@H](CO)[C@@H](O)[C@H](N)[C@H]1O [Amikacin] | R | S | S | R | R | R | S | S | R | S | S | S | S | S | S | S | S |
| O=C(N[C@H](CO)[C@H](O)c1ccc([N+](=O)[O-])cc1)C(Cl)Cl [Chloramphenicol] | R | R | R | R | R | R |  |  | R | S | S | S | S | S | R | R | R |
| CC1(C)[C@H](C(=O)O)N2C(=O)C[C@H]2S1(=O)=O [Sulbactam] | R | R | R | R | R |  |  |  |  | R/S | R/S | R | S | S |  |  |  |
| C[C@]1(Cn2ccnn2)[C@H](C(=O)O)N2C(=O)C[C@H]2S1(=O)=O [Tazobactam] | R | R | R | R | R | R | R/S | R/S | R | S | S | R/S | S | S | S | R | R |
| C[C@H]1COc2c(N3CCN(C)CC3)c(F)cc3c(=O)c(C(=O)O)cn1c23 [Levofloxacin] | R | R | R | R | R | R | R | R | R | R | R | R | S |  | R | R | R |
| Polymyxin |  |  |  | S | S | S | S | S | S |  |  |  |  |  | R | S | S |
| CCN1CCN(C(=O)N[C@@H](C(=O)N[C@@H]2C(=O)N3[C@@H]2SC(C)(C)[C@@H]3C(=O)O)c2ccccc2)C(=O)C1=O [Piperacillin] | R | R | R | R | R | R | R/S | R/S | R | R | R | R | S | S | R | R | R |
| C[C@@H](O)[C@H]1C(=O)N2C(C(=O)O)=C(SCCN=CN)C[C@H]12 [Imipenem] | R | S | S | R | R | R | S | S |  | S | S | S | S | S | S | R | R |
| CC1(C)S[C@@H]2[C@H](NC(=O)[C@H](N)c3ccccc3)C(=O)N2[C@H]1C(=O)O [Ampicillin] | R | R | R | R | R | R | R/S | R/S | R | S | S | R | S | S |  |  |  |
| CO/N=C(\C(=O)N[C@@H]1C(=O)N2C(C(=O)O)=C(COC(C)=O)CS[C@H]12)c1csc(N)n1 [Cefotaxime] | R | R | R | R | R | R | R | R | R | R | R | R | S | S | R | R | R |
